Structures are written as SMILES. Values joined by “and” are separate entries in the source; they are usually repeats but may differ in a detail not shown here. Identical values can stand only once.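 96-well plates; 48 h exposure; 5 concentrations. Endpoints by linear interpolation between flanking doses. Not reached: highest tested concentration assigned. GI50: concentration for 50% inhibition of growth. TGI: total growth inhibition.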

Among the test systems are MDA-N; DLD-1 colon; DMS 114 small cell lung; HOP-18 NSCLC; KM20L2 colon; RXF-631 renal; SNB-78 CNS; P388 leukemia; P388/ADR leukemia; SN12K1 renal; XF 498 CNS.
What all share (assay): NCI tumour cell line growth inhibition, 48 h

The compound `Cc1cc(C)c2nc3c(c(C(O)C4CCCCN4)c2c1)CC/C3=C\c1ccc(Cl)cc1` (configuration not stated) showed a TGI in the assay with MDA-N of over 100 µM.
On the same count and under the same terms, for `CC1(C)CC(O)CC(C)(C)N1O` the value was over 100 µM.
In the assay on MDA-N, `O=c1[nH]c2cc(Cl)ccc2nc1/C(=N\Nc1ccccc1)C(O)c1ccc2c(c1)OCO2` (configuration not stated) came in with a TGI of over 100 µM.
With `C/C=C/C=C/c1cc2cc3c(c(O)c2c(=O)[nH]1)C1(CC3)C(O)=c2c(=O)c3c(=O)cc(OC)c(=O)c=3c(=O)c2=C1O` (configuration not stated), the TGI is 17.9 µM with DLD-1 colon; 4.83 µM in the assay with DMS 114 small cell lung; 7.47 µM in the assay with HOP-18 NSCLC; 10.9 µM in the assay on KM20L2 colon; 11.9 µM in the assay with MDA-N; over 100 µM with RXF-631 renal. This compound returned a TGI in the assay on SNB-78 CNS of over 56.7 µM.
`Cc1c(Cl)ccc2c1NC(=O)C2(O)CC(=O)c1ccc(Cl)cc1` (configuration not stated): the TGI was over 100 µM in the assay with DLD-1 colon; 37.1 µM in the assay on DMS 114 small cell lung; over 100 µM in the assay on HOP-18 NSCLC; over 100 µM with KM20L2 colon; over 100 µM with RXF-631 renal; over 100 µM in the assay with SNB-78 CNS.
On to `COC(=O)[C@@]12OC[C@]34[C@H]([C@@H](O)[C@@H]1O)[C@@]1(C)CC(=O)C(O)=C(C)[C@@H]1C[C@H]3OC(=O)[C@H](OC(=O)/C=C(\C)C(C)C)[C@@H]24`, for which the GI50 in the assay with DMS 114 small cell lung is 0.0354 nM; in the assay on HOP-18 NSCLC, 0.00161 µM; in the assay with MDA-N it was 0.02 µM; in the assay with SNB-78 CNS, 0.00089 µM. For the same compound, the TGI in the assay on DMS 114 small cell lung is 0.000286 µM; in the assay on HOP-18 NSCLC it was 0.016 µM and 0.0848 µM; with MDA-N it was 0.0345 µM and 0.0321 µM; in the assay with P388 leukemia, 0.109 µM; in the assay with P388/ADR leukemia it was 0.692 µM; in the assay with SN12K1 renal, 0.0541 µM. Besides, the TGI in the assay with SNB-78 CNS was 0.00899 µM and 0.0427 µM and 0.0707 µM; in the assay on XF 498 CNS, 0.0212 µM.
`CC(C)(O)C1COC2=C1C(=O)c1ccccc1C2=O` (configuration not stated): the TGI with MDA-N was found to be 33.3 µM.
For the compound `C[N+](C)(C)CC1CCC(C[N+](C)(C)C)C1=NO` (configuration not stated), the TGI with DLD-1 colon, with HOP-18 NSCLC, in the assay with KM20L2 colon, with SNB-78 CNS and in the assay on XF 498 CNS was over 100 µM throughout.
Consider `CCCC1C[C@H]2CCCCN2[C@H]2CCCN12` (some centres not stated), for which the TGI in the assay on DLD-1 colon is over 83.6 µM; in the assay with DMS 114 small cell lung it was over 86.9 µM; with HOP-18 NSCLC, over 100 µM; in the assay with KM20L2 colon, over 100 µM; in the assay on RXF-631 renal it was over 100 µM; in the assay with SNB-78 CNS it was over 100 µM. This compound gave a TGI in the assay with XF 498 CNS of over 100 µM.
On to `OC12CCC3(OC4CCCCO4)c4ccccc4C3C1c1ccccc12` (configuration not stated), for which the TGI in the assay with DMS 114 small cell lung, in the assay with HOP-18 NSCLC, in the assay on KM20L2 colon, with SNB-78 CNS and with XF 498 CNS was over 100 µM throughout.
For `CC1NOC(=O)C1N=Nc1cccc(Cl)c1` (configuration not stated), the TGI in the assay on DLD-1 colon was over 100 µM; in the assay with DMS 114 small cell lung, 61.7 µM; with HOP-18 NSCLC, over 100 µM; in the assay with KM20L2 colon, over 100 µM; with SNB-78 CNS, over 100 µM; in the assay on XF 498 CNS, 72 µM.
On to `CN(C)CCCN1c2ccccc2Sc2ccc(C(F)(F)F)cc21`, for which the TGI in the assay on DLD-1 colon came out at 31.9 µM; in the assay on DMS 114 small cell lung, 34 µM; in the assay with KM20L2 colon, 23.7 µM; with MDA-N, 26.3 µM; in the assay with SNB-78 CNS, 33.9 µM.
As to `O=C(/C=C/c1ccccc1)c1ccc(Cl)cc1Cl`, the TGI with DLD-1 colon was 33.3 µM; in the assay with DMS 114 small cell lung, 33.3 µM; with HOP-18 NSCLC, 60.5 µM; with KM20L2 colon, 45.7 µM; in the assay on RXF-631 renal, over 100 µM; in the assay on SNB-78 CNS, 49.3 µM.
Consider `N#C/C(=C\c1ccc(O)cc1)C(N)=O`, for which the TGI in the assay on DLD-1 colon, in the assay on DMS 114 small cell lung, in the assay with KM20L2 colon, in the assay with P388 leukemia, in the assay on P388/ADR leukemia and in the assay on RXF-631 renal was over 100 µM in each case. The TGI in the assay on SN12K1 renal, with SNB-78 CNS and with XF 498 CNS was over 100 µM throughout.
`C=C1C(=O)OC2CC(C)C(/C=C/C(C)=O)=CCC12` (configuration not stated) displayed a TGI with MDA-N of over 100 µM.
Turning to `COC(=O)c1c(C(=O)OC)c(-c2ccccc2)n(-c2ccccc2)c(=O)c1-c1ccccc1`, the TGI was over 100 µM in the assay with DLD-1 colon; over 100 µM in the assay on DMS 114 small cell lung; over 100 µM in the assay with KM20L2 colon; over 100 µM with SNB-78 CNS; 68.8 µM with XF 498 CNS.
Take `O=[N+]([O-])c1cccc(/C=N/Nc2ccc3ccccc3n2)c1O`: the TGI with MDA-N amounted to 34.3 µM.
Still for that read-out and setting: for `OCCCN=C1CCCCC1` the value was over 100 µM.
In the case of `COC(=O)C(=O)C(C(=O)C(=O)Nc1ccc([N+](=O)[O-])cc1)c1nc2ccccc2[nH]c1=O` (configuration not stated), the TGI in the assay on DLD-1 colon, with DMS 114 small cell lung, in the assay with HOP-18 NSCLC, in the assay on KM20L2 colon, in the assay on RXF-631 renal and with XF 498 CNS was over 100 µM in each case.
The compound `O=[N+]([O-])c1ccccc1N=Nc1c(O)[nH]c2c(Cl)cccc12` registered a TGI in the assay on MDA-N of over 100 µM.
With `O=C(N/C(=C\c1ccc([N+](=O)[O-])cc1)c1nc2ccccc2s1)c1ccccc1`, the TGI is 58.7 µM in the assay with DLD-1 colon; 68.4 µM with DMS 114 small cell lung; 61.9 µM with HOP-18 NSCLC; over 100 µM in the assay with KM20L2 colon; over 100 µM in the assay on SNB-78 CNS; over 100 µM in the assay on XF 498 CNS.
`N=C(N)c1ccc2oc3ccc(C(=N)N)cc3c(=O)c2c1` registered a TGI with MDA-N of over 100 µM.
On the same count and under the same terms, for `COC1C(OC(=O)c2ccc(C)[nH]2)C(O)C(Oc2ccc3c(O)c(NC(=O)c4ccc(O)c(CC=C(C)C)c4)c(=O)oc3c2Cl)OC1(C)C` (configuration not stated) the value was over 100 µM.
Turning to `COC(=O)CC1(O)C(=O)OCc2c1cc1n(c2=O)Cc2c-1nc1ccccc1c2OC` (configuration not stated), the TGI with DLD-1 colon is over 100 µM; in the assay on DMS 114 small cell lung, over 33.1 µM; in the assay on HOP-18 NSCLC it was over 100 µM; in the assay with KM20L2 colon it was over 100 µM; in the assay with RXF-631 renal it was over 100 µM; with SNB-78 CNS, over 100 µM. This compound also had a TGI in the assay with XF 498 CNS of 40 µM.
As for `O=C1CCC(c2ccccc2)=NN1c1nc2ccccc2s1`, the TGI was over 100 µM in the assay on DLD-1 colon; over 100 µM in the assay on DMS 114 small cell lung; over 100 µM in the assay on HOP-18 NSCLC; over 100 µM in the assay on MDA-N; over 100 µM in the assay with SNB-78 CNS; 86.7 µM with XF 498 CNS.
Consider `O=C1/C(=C/c2ccc(Cl)cc2)CCC1CNc1ccc(Cl)cc1` (configuration not stated), for which the TGI in the assay on DLD-1 colon is 10.7 µM; in the assay with DMS 114 small cell lung, over 48.3 µM; in the assay on HOP-18 NSCLC, over 74.5 µM; in the assay with KM20L2 colon, 12.6 µM; in the assay with MDA-N, 40.4 µM; with SNB-78 CNS, over 100 µM. In addition, the TGI with XF 498 CNS was 29.5 µM.
Regarding `Cc1cc(N(CCC#N)CCC#N)ccc1/C=C(\NC(=O)/C=C/c1ccccc1)C(=O)Nc1ccccc1Cl`, the TGI in the assay on DLD-1 colon, with DMS 114 small cell lung, with KM20L2 colon and in the assay on SNB-78 CNS was over 100 µM each time.
Consider `NNc1c(C(N)=O)c2c(N)ncnc2n1C1OC(CO)C(O)C1O` (configuration not stated), for which the TGI with MDA-N came to 0.144 µM.
For the compound `CCOc1ccc(NC(=O)CC2SC(=Nc3ccc(C)cc3)NC2=O)cc1` (configuration not stated), the TGI with DLD-1 colon, in the assay with DMS 114 small cell lung, in the assay on KM20L2 colon, in the assay on RXF-631 renal, in the assay on SNB-78 CNS and with XF 498 CNS was over 100 µM throughout.
Regarding `CC(C)(C)N/N=C(/Cc1nc2c3c(ccc2[nH]c1=O)C(=O)c1ccccc1C3=O)C(=O)NC1=C(Cl)C(=O)c2ccccc2C1=O`, in the assay on MDA-N, the TGI came out at 28.3 µM.
With `CCCCCCCCCCCC/C=C\CC[C@@H](O)[C@H](O)CC[C@H](O)[C@@H]1CC[C@@H](CCCCCCCC2=C[C@H](C)OC2=O)O1`, in the assay on MDA-N, the GI50 is 6.76 µM and the TGI was determined as 23.4 µM.
For the compound `C=CCNC(=S)NNC(=O)c1c(C)nc2sccn12`, the TGI in the assay on DLD-1 colon, with DMS 114 small cell lung, in the assay on HOP-18 NSCLC, in the assay with KM20L2 colon, in the assay on RXF-631 renal and with XF 498 CNS was over 100 µM throughout.
For the compound `COc1ccc(/C=C/C(=O)c2c(-c3ccccc3)nn(C)c(=O)c2N2CC2C)cc1` (configuration not stated), the TGI was over 100 µM with DLD-1 colon; 90.6 µM with DMS 114 small cell lung; over 100 µM in the assay on HOP-18 NSCLC; 80 µM in the assay on KM20L2 colon; 63.1 µM in the assay on SNB-78 CNS.
`COc1cccc(/C=C2\N=C(c3ccccc3)OC2=O)c1` had a TGI with MDA-N of over 100 µM.
`Cc1ccc(C)c2c1C1CCCCC3(OCCCO3)C21O` (configuration not stated): the TGI in the assay with DLD-1 colon, in the assay on DMS 114 small cell lung, in the assay on HOP-18 NSCLC, with KM20L2 colon and with SNB-78 CNS was over 100 µM throughout.
On to `Cc1cc(NCCCCCCCNc2cc(C)nc3cc(N)ccc23)c2ccc(N)cc2n1`, for which the TGI in the assay with DLD-1 colon is over 100 µM; with DMS 114 small cell lung, 32 µM; in the assay with KM20L2 colon it was over 100 µM; with SNB-78 CNS, over 100 µM; in the assay with XF 498 CNS, 66.2 µM.
Turning to `O=P(CN1CCOCC1)(c1ccccc1)c1ccccc1`, the TGI with DMS 114 small cell lung, in the assay with RXF-631 renal, with SNB-78 CNS and in the assay on XF 498 CNS was over 100 µM throughout.
For `CCOc1ccc(C2=NN(CC)C(=O)C(C3C(=O)N(c4ccccc4)N=C3C)C2)cc1` (configuration not stated), the TGI in the assay on DLD-1 colon, in the assay with DMS 114 small cell lung, in the assay with HOP-18 NSCLC, with KM20L2 colon, in the assay on SNB-78 CNS and in the assay with XF 498 CNS was over 100 µM each time.
In the case of `COc1cc2c(oc(=O)c3c4occc4cc(OC)c23)c2cccc(O)c12`, the TGI in the assay with DLD-1 colon, in the assay with DMS 114 small cell lung, in the assay with HOP-18 NSCLC, in the assay on KM20L2 colon, in the assay on SNB-78 CNS and in the assay with XF 498 CNS was over 100 µM in each case.
